Experimental data from US9682953B2, “Amide compounds, compositions and applications thereof” (Advinus Therapeutics Limited, priority 2011, dated 2017).
Like-named read-outs stand apart in the source and are kept apart here.

How the values were obtained:
[1] = target: rat Fatty Acid Amide Hydrolase (FAAH) (Rattus norvegicus (Rat), UniProt P97612); assay: FAAH in vitro fluorescence assay (AAMCA hydrolysis), rat enzyme; format: biochemical; details: for inhibition at 10 µM: read-out: rFAAH % inhibition at 10 uM; for inhibition at 0.1 µM: read-out: rFAAH % inhibition at 100 nM, 100 nM (tier I)
rat Fatty Acid Amide Hydrolase (FAAH), sequence (P97612 30-579): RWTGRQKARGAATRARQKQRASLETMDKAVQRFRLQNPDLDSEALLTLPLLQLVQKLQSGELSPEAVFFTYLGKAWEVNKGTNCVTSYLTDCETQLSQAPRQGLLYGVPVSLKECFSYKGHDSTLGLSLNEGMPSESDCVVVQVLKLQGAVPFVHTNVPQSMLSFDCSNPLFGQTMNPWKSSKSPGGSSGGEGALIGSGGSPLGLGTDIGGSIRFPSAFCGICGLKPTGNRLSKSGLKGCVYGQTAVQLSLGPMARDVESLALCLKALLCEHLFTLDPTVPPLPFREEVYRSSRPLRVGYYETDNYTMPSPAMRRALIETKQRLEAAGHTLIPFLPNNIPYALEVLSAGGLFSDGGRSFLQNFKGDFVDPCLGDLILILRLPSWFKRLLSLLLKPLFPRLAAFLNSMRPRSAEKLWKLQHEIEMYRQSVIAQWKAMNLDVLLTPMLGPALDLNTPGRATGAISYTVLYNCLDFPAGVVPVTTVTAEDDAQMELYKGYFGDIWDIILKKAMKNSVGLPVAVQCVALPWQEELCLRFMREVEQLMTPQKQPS
Procedure: Material and Reagents: All reagents were purchased from Sigma-Aldrich unless specified. […] Chaperone protein groEL-groES in pGRO7 plasmid (Takara Bio Inc, Japan) was co-expressed with Fatty Acid Amide Hydrolase (FAAH) to improve solubility of the protein expressed in E coli. […] Briefly, the bacterial cultures in Luria Broth (2 L) were induced with arabinose (2 mM) and Isopropyl (β-D-1-thiogalactopyranoside, IPTG (1 mM), for 20 h at room temperature. The cultures were centrifuged at 1200×g for 10 min and the cell pellet was resuspended in 100 mL buffer containing of 20 mM NaPi (pH 7.4), 100 mM NaCl, Benzonase (500u), Aprotinin (1 μg/mL) and Leupeptin (1 μg/mL). Cells were lyzed by sonication (Amp 20%, Pulse 15 s×15, on ice) and the cell debris removed by centrifugation at 5000×g for 20 min. The supernatant was enriched via ultracentrifugation at 100,000×g for 1 h and the cell pellet was resuspended in 16 mL buffer containing 20 mM NaPi (pH 7.8), 500 mM NaCl, 1% Triton X-100. The resuspended cell extract was subjected to ultra-centrifugation at 100,000×g for 1 h and the enriched supernatant was used in the in vitro assay. All protein extraction steps were carried out on ice or at 4° C.
The assay was carried out in 200 μL volume in a 96-well black polystyrene plate (Greiner Bio-one, Germany). Each reaction consisted of human Fatty Acid Amide Hydrolase (FAAH) protein and 10 μM AAMCA in assay buffer containing 50 mM HEPES, 1 mM EDTA and 0.1% BSA, pH 7.4. The reaction was incubated with 2 μL of varying concentrations of inhibitor in DMSO (final concentration of DMSO 1%) with shaking for 1 min and monitored for increase in fluorescence in kinetic mode for 50 min. […] Rate of reaction as a function of the concentration of the inhibitor was used to determine the IC50 of the inhibitors. Data was analyzed using GraphPad Prism 5 (GraphPad Software Inc., San Diego, Calif.). The activity of the compounds for rat Fatty Acid Amide Hydrolase (FAAH) was evaluated as described above with rat Fatty Acid Amide Hydrolase (FAAH) protein and 10 μM AAMCA substrate.

[2] = target: human Fatty Acid Amide Hydrolase (FAAH) (Homo sapiens (Human), UniProt O00519); assay: biochemical; details: for IC50: read-out: hFAAH IC50
human Fatty Acid Amide Hydrolase (FAAH), sequence (O00519 30-579): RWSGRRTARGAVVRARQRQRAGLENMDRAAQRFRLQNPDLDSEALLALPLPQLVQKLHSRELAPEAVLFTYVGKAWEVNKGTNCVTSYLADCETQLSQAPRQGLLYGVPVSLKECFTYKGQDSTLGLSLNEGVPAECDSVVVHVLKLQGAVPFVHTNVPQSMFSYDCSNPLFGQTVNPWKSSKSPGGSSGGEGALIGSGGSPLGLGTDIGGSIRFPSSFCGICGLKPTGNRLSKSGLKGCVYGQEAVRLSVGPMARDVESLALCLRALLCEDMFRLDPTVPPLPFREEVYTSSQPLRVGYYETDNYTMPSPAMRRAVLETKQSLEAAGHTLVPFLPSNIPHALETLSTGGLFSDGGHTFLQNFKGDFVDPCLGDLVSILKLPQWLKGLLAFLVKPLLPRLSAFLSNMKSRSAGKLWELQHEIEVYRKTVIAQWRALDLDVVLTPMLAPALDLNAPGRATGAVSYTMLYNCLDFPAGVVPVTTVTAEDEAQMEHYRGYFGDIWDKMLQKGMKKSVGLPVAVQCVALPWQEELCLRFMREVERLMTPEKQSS

O=C(NC1CCC(=Cc2cccc(Oc3ccc(C(F)(F)F)cn3)c2)CC1)c1cccnc1 (single isomer, unassigned; (+)) [Example 20.A-1, (+)-N-[4-[[3-[[5-(Trifluoromethyl)-2-pyridyl]oxy]phenyl]methylene]cyclohexyl]pyridine-3-carboxamide]
inhibition at 10 µM ([1]; rat FAAH): 60%

Nc1ccc(C(=O)NC2CCC(=Cc3cccc(Oc4ccc(C(F)(F)F)cn4)c3)CC2)cn1 (single isomer, unassigned; (+)) [Example 20.A-3, (+)-6-Amino-N-[4-[[3-[[5-(trifluoromethyl)-2-pyridyl]oxy]phenyl]methylene]cyclohexyl]pyridine-3-carboxamide]
inhibition at 10 µM ([1]; rat FAAH): 70%
IC50 [2]: 0.361 µM

O=C(NC1CCC(=Cc2cccc(Oc3ccc(C(F)(F)F)cn3)c2)CC1)c1c[nH]nc1C(F)(F)F (single isomer, unassigned; (+)) [Example 20.A-7, (+)-3-(Trifluoromethyl)-N-[4-[[3-[[5-(trifluoromethyl)-2-pyridyl]oxy]phenyl]methylene]cyclohexyl]-1H-pyrazole-4-carboxamide]
inhibition at 10 µM ([1]; rat FAAH): 85%
IC50 [2]: 0.067 µM

O=C(NC1CCC(=Cc2cccc(Oc3ccc(C(F)(F)F)cn3)c2)CC1)c1cn[nH]c1 (single isomer, unassigned; (+)) [Example 20.A-11, (+)-N-[4-[[3-[[5-(trifluoromethyl)-2-pyridyl]oxy]phenyl]methylene]cyclohexyl]-1H-pyrazole-4-carboxamide]
inhibition at 10 µM ([1]; rat FAAH): 86%
IC50 ([2]; human FAAH): 0.078 µM

O=C(NC1CCC(=Cc2cccc(Oc3ccc(C(F)(F)F)cn3)c2)CC1)c1cnc2[nH]ccc2c1 (single isomer, unassigned; (+)) [Example 20.A-13, (+)-N-[4-[[3-[[5-(trifluoromethyl)-2-pyridyl]oxy]phenyl]methylene]cyclohexyl]-1H-pyrrolo[2,3-b]pyridine-5-carboxamide]
IC50 ([1]; rat FAAH, read-out: rFAAH IC50): 0.407 µM
IC50 [2]: 0.055 µM

O=C(NC1CCC(=Cc2cccc(Oc3ccc(C(F)(F)F)cn3)c2)CC1)c1cccnn1 (single isomer, unassigned; (+)) [Example 20.A-15, (+)-N-[4-[[3-[[5-(trifluoromethyl)-2-pyridyl]oxy]phenyl]methylene]cyclohexyl]pyridazine-3-carboxamide]
IC50 ([1]; rat FAAH, read-out: rFAAH IC50): 0.408 µM
IC50 [2]: 0.431 µM

O=C(NC1CCC(=Cc2cccc(Oc3ccc(C(F)(F)F)cn3)c2)CC1)c1c[nH]c2ccccc12 (single isomer, unassigned; (+)) [Example 20.A-17, (+)-N-[4-[[3-[[5-(trifluoromethyl)-2-pyridyl]oxy]phenyl]methylene]cyclohexyl]-1H-indole-3-carboxamide]
inhibition at 10 µM ([1]; rat FAAH): 90%
IC50 [2]: 0.155 µM

Nc1ccc(C(=O)NC2CCC(=Cc3cccc(Oc4ccc(C(F)(F)F)cn4)c3)CC2)cn1 (single isomer, unassigned; (-)) [Example 20.A-4, (−)-6-Amino-N-[4-[[3-[[5-(trifluoromethyl)-2-pyridyl]oxy]phenyl]methylene]cyclohexyl]pyridine-3-carboxamide]
IC50 ([1]; rat FAAH, read-out: rFAAH IC50): 0.011 µM
IC50 [2]: 0.001 µM

Cc1cc(C(=O)NC2CCC(=Cc3cccc(Oc4ccc(C(F)(F)F)cn4)c3)CC2)cnc1N (single isomer, unassigned; (-)) [Example 20.A-6, (−)-6-Amino-5-methyl-N-[4-[[3-[[5-(trifluoromethyl)-2-pyridyl]oxy]phenyl]methylene]cyclohexyl]pyridine-3-carboxamide]
IC50 ([1]; rat FAAH, read-out: rFAAH IC50): 0.01 µM
IC50 ([2]; human FAAH): 0.001 µM

O=C(NC1CCC(=Cc2cccc(Oc3ccc(C(F)(F)F)cn3)c2)CC1)c1c[nH]nc1C(F)(F)F (single isomer, unassigned; (-)) [Example 20.A-8, (−)-3-(Trifluoromethyl)-N-[4-[[3-[[5-(trifluoromethyl)-2-pyridyl]oxy]phenyl]methylene]cyclohexyl]-1H-pyrazole-4-carboxamide]
IC50 ([1]; rat FAAH, read-out: rFAAH IC50): 0.03 µM
IC50 [2]: 0.001 µM

Nc1ncc(C(=O)NC2CCC(=Cc3cccc(Oc4ccc(C(F)(F)F)cn4)c3)CC2)cn1 (single isomer, unassigned; (-)) [Example 20.A-10]
IC50 ([1]; rat FAAH, read-out: rFAAH IC50): 0.007 µM
IC50 [2]: 0.0006 µM

O=C(NC1CCC(=Cc2cccc(Oc3ccc(C(F)(F)F)cn3)c2)CC1)c1cn[nH]c1 (single isomer, unassigned; (-)) [Example 20.A-12, (−)-N-[4-[[3-[[5-(trifluoromethyl)-2-pyridyl]oxy]phenyl]methylene]cyclohexyl]-1H-pyrazole-4-carboxamide]
IC50 ([1]; rat FAAH, read-out: rFAAH IC50): 0.0355 µM
IC50 ([2]; human FAAH): 0.0017 µM

O=C(NC1CCC(=Cc2cccc(Oc3ccc(C(F)(F)F)cn3)c2)CC1)c1cnc2[nH]ccc2c1 (single isomer, unassigned; (-)) [Example 20.A-14, (−)-N-[4-[[3-[[5-(trifluoromethyl)-2-pyridyl]oxy]phenyl]methylene]cyclohexyl]-1H-pyrrolo[2,3-b]pyridine-5-carboxamide]
IC50 ([1]; rat FAAH, read-out: rFAAH IC50): 0.0086 µM
IC50 [2]: 0.001 µM

O=C(NC1CCC(=Cc2cccc(Oc3ccc(C(F)(F)F)cn3)c2)CC1)c1cccnn1 (single isomer, unassigned; (-)) [Example 20.A-16, (−)-N-[4-[[3-[[5-(trifluoromethyl)-2-pyridyl]oxy]phenyl]methylene]cyclohexyl]pyridazine-3-carboxamide]
IC50 ([1]; rat FAAH, read-out: rFAAH IC50): 0.115 µM
IC50 [2]: 0.004 µM

O=C(NC1CCC(=Cc2cccc(Oc3ccc(C(F)(F)F)cn3)c2)CC1)c1c[nH]c2ccccc12 (single isomer, unassigned; (-)) [Example 20.A-18, (−)-N-[4-[[3-[[5-(trifluoromethyl)-2-pyridyl]oxy]phenyl]methylene]cyclohexyl]-1H-indole-3-carboxamide]
IC50 [1]: 0.035 µM
IC50 ([2]; human FAAH): 0.004 µM

O=C(Nc1ncc(Cl)s1)C1CCC(=Cc2cccc(Oc3ccc(C(F)(F)F)cn3)c2)CC1 (stereo not drawn) [Example 1.1, N-(5-Chlorothiazol-2-yl)-4-[[3-[[5-(trifluoromethyl)-2-pyridyl]oxy]phenyl]methylene]cyclohexanecarboxamide]
IC50 ([1]; rat FAAH, read-out: rFAAH IC50): 0.06 µM
IC50 ([2]; human FAAH): 0.016 µM

O=C(Nc1cnccn1)C1CCC(=Cc2cccc(Oc3ccc(C(F)(F)F)cn3)c2)CC1 (stereo not drawn) [Example 1.A-3, N-Pyrazin-2-yl-4-[[3-[[5-(trifluoromethyl)-2-pyridyl]oxy]phenyl]methylene]cyclohexanecarboxamide]
IC50 ([1]; rat FAAH, read-out: rFAAH IC50): 0.044 µM
IC50 ([2]; human FAAH): 0.009 µM

Cc1ccc(C(=O)NC2CCC(=Cc3cccc(Oc4ccc(C(F)(F)F)cn4)c3)CC2)cn1 (stereo not drawn) [Example 2.2, 6-Methyl-N-[4-[[3-[[5-(trifluoromethyl)-2-pyridyl]oxy]phenyl]-methylene]cyclohexyl]pyridine-3-carboxamide]
IC50 ([1]; rat FAAH, read-out: rFAAH IC50): 0.028 µM
IC50 [2]: 0.005 µM

O=C(NC1CCC(=Cc2cccc(Oc3ccc(C(F)(F)F)cn3)c2)CC1)c1cc[nH]n1 (stereo not drawn) [Example 2.A-1, N-[4-[[3-[[5-(Trifluoromethyl)-2-pyridyl]oxy]phenyl]methylene]cyclohexyl]-1H-pyrazole-3-carboxamide]
IC50 ([1]; rat FAAH, read-out: rFAAH IC50): 0.418 µM
IC50 ([2]; human FAAH): 0.01 µM

O=C(NC1CCC(=Cc2cccc(Oc3ccc(C(F)(F)F)cn3)c2)CC1)c1ccccn1 (stereo not drawn) [Example 2.A-4, N-[4-[[3-[[5-(Trifluoromethyl)-2-pyridyl]oxy]phenyl]methylene]cyclohexyl]pyridine-2-carboxamide]
inhibition at 30 µM ([1]; read-out: rFAAH % inhibition at 30 uM, rat FAAH, 30 uM): 70%
IC50 ([2]; human FAAH): 0.508 µM

O=C(NC1CCC(=Cc2cccc(Oc3ccc(C(F)(F)F)cn3)c2)CC1)c1nc2cccnc2s1 [Example 2.D-3, N-[4-[[3-[[5-(Trifluoromethyl)-2-pyridyl]oxy]phenyl]methylene]cyclohexyl]thiazolo[5,4-b]pyridine-2-carboxamide]
inhibition at 0.1 µM ([1]; rat FAAH): 38%

O=C(O)Cn1cc(C(=O)NC2CCC(=Cc3cccc(Oc4ccc(C(F)(F)F)cn4)c3)CC2)cn1 (stereo not drawn) [Example 8.A-2, 2-[4-[[4-[[3-[[5-(Trifluoromethyl)-2-pyridyl]oxy]phenyl]methylene]cyclohexyl]carbamoyl]pyrazol-1-yl]acetic acid]
inhibition at 0.1 µM ([2]; read-out: hFAAH % inhibition at 100 nM, human FAAH, 100 nM (tier I)): 40%

O=C(NC1CCC(=Cc2cccc(Oc3ccc(C(F)(F)F)cn3)c2)CC1)c1ccc(-n2ccc(C(=O)O)n2)nc1 (stereo not drawn) [Example 8.A-5, 1-[5-[[4-[[3-[[5-(Trifluoromethyl)-2-pyridyl]oxy]phenyl]methylene]cyclohexyl]carbamoyl]-2-pyridyl]pyrazole-3-carboxylic acid]
inhibition at 0.1 µM ([1]; rat FAAH): 55%
